Assay results taken from patent US20070128217A1 (priority 2003, published 2007).

Experiments:
[1] = test system: control sera (pooled serum of ten healthy LUMC hospital workers; commercial negative donor pooled serum from the Dutch bloodbank); assay type: binding, human; parameters: Binding of Control serum LUMC to linear peptides / Binding of Control serum Blood-bank to linear peptides / Binding of Control serum LUMC to looped peptides / Binding of Control Serum Blood-Bank to Looped peptides / Binding of Control serum LUMC to linear peptides of the protein M of SARS-CoV Urbani / Binding of Control serum Blood-bank to linear peptides of the protein M of SARS-CoV Urbani / Binding of Control serum LUMC to looped peptides of the protein M of SARS-CoV Urbani / Binding of Control Serum Blood-Bank to Looped peptides of the protein M of SARS-CoV Urbani: unit not given here
[2] = test system: antibodies in sera from SARS patients (sera 1a, 1b, 2, 6, 37, 62, London, SARS-yellow, SARS-green); assay type: binding, human; parameters: Binding of serum 6 to linear peptides of protein X1 of SARS-CoV Urbani / Binding of serum 37 to linear peptides of protein X1 of SARS-CoV Urbani / Binding of serum 6 to looped/cyclic peptide (PEPSCAN-ELISA) / Binding of serum 37 to looped/cyclic peptide (PEPSCAN-ELISA) / Binding of serum 37 to looped/cyclic peptides of protein X1 of SARS-CoV Urbani / Binding of serum 6 to linear peptides of protein X2 / Binding of serum 37 to linear peptides of protein X2 / Binding of serum 37 to looped/cyclic peptides of protein X2 of SARS-CoV Urbani / Binding of serum 6 to linear peptides of protein M of SARS-CoV Urbani / Binding of serum 37 to linear peptides of protein M of SARS-CoV Urbani / Binding of serum 6 to looped/cyclic peptides of protein M of SARS-CoV Urbani / Binding of serum 37 to looped/cyclic peptides of protein M of SARS-CoV Urbani / Binding of serum 6 to linear peptides of protein X3 of SARS-CoV Urbani / Binding of serum 37 to linear peptides of protein X3 of SARS-CoV Urbani / Binding of serum 37 to looped/cyclic peptides of protein X3 of SARS-CoV Urbani / Binding of serum 6 to linear peptides of protein X4 of SARS-CoV Urbani / Binding of serum 37 to linear peptides of protein X4 of SARS-CoV Urbani / Binding of serum 37 to looped/cyclic peptides of protein X4 of SARS-CoV Urbani / Binding of serum 6 to linear peptides of protein X5 of SARS-CoV Urbani / Binding of serum 37 to linear peptides of protein X5 of SARS-CoV Urbani / Binding of serum 37 to looped/cyclic peptides of protein X5 of SARS-CoV Urbani / Binding of serum 6 to linear peptides of protein N of SARS-CoV Urbani / Binding of serum 37 to linear peptides of protein N of SARS-CoV Urbani / Binding of serum 6 to linear peptide (PEPSCAN-ELISA) / Binding of serum 1a to looped/cyclic peptides of protein N of SARS-CoV Urbani / Binding of serum 1b to looped/cyclic peptides of protein N of SARS-CoV Urbani / Binding of serum 2 to looped/cyclic peptides of protein N of SARS-CoV Urbani / Binding of serum 6 to looped/cyclic peptides of protein N of SARS-CoV Urbani / Binding of serum 37 to looped/cyclic peptides of protein N of SARS-CoV Urbani / Binding of serum 62 to looped/cyclic peptides of protein N of SARS-CoV Urbani / Binding of serum London to looped/cyclic peptides of protein N of SARS-CoV Urbani / Binding of serum SARS-green to looped/cyclic peptides of protein N of SARS-CoV Urbani: unit not given here
[3] = test system: rabbit serum obtained by immunizing a rabbit with the SARS-CoV strain Frankfurt 1; assay type: binding; parameters: Binding of a rabbit serum to linear peptides / Binding of a rabbit serum to looped peptides / Rabbit serum linear peptides / Rabbit serum looped peptides / Binding of a rabbit serum to linear peptides of protein N of SARS-CoV Urbani (Rabbit serum linear peptides) / Binding of a rabbit serum to looped/cyclic peptides of protein N of SARS-CoV Urbani (Rabbit serum looped peptides): unit not given here

LYSPLFLIVAALVFL
Binding of Control Serum Blood-Bank to Looped peptides [1]: 0.6 | Binding of Control serum Blood-bank to linear peptides [1]: 0.5 | Binding of Control serum LUMC to linear peptides [1]: 0.4 | Binding of Control serum LUMC to looped peptides [1]: 0.6 | Binding of serum 1a to linear peptides of protein X4 of SARS-CoV Urbani [2]: 0.6 | Binding of serum 1a to looped/cyclic peptides of protein X4 of SARS-CoV Urbani [2]: 0.5 | Binding of serum 1b to linear peptides of protein X4 of SARS-CoV Urbani [2]: 0.4 | Binding of serum 1b to looped/cyclic peptides of protein X4 of SARS-CoV Urbani [2]: 0.3 | Binding of serum 2 to linear peptides of protein X4 of SARS-CoV Urbani [2]: 0.4 | Binding of serum 2 to looped/cyclic peptides of protein X4 of SARS-CoV Urbani [2]: 0.4 | Binding of serum 6 to linear peptides of protein X4 of SARS-CoV Urbani [2]: 0.5 | Binding of serum 6 to looped/cyclic peptides of protein X4 of SARS-CoV Urbani [2]: 0.4 | Binding of serum 37 to linear peptides of protein X4 of SARS-CoV Urbani [2]: 0.6 | Binding of serum 37 to looped/cyclic peptides of protein X4 of SARS-CoV Urbani [2]: 0.5 | Binding of serum 62 to linear peptides of protein X4 of SARS-CoV Urbani [2]: 0.6 | Binding of serum 62 to looped/cyclic peptides of protein X4 of SARS-CoV Urbani [2]: 0.5 | Binding of serum London to linear peptides of protein X4 of SARS-CoV Urbani [2]: 0.6 | Binding of serum London to looped/cyclic peptides of protein X4 of SARS-CoV Urbani [2]: 0.2 | Binding of serum SARS-green to linear peptides of protein X4 of SARS-CoV Urbani [2]: 0.5 | Binding of serum SARS-green to looped/cyclic peptides of protein X4 of SARS-CoV Urbani [2]: 0.4 | Binding of serum SARS-yellow to linear peptides of protein X4 of SARS-CoV Urbani [2]: 0.2 | Binding of serum SARS-yellow to looped/cyclic peptides of protein X4 of SARS-CoV Urbani [2]: 0.4 | Rabbit serum linear peptides [3]: 0.4 | Rabbit serum looped peptides [3]: 0.3

MACIVGLMWLSYFVA
Binding of Control Serum Blood-Bank to Looped peptides of the protein M of SARS-CoV Urbani [1]: 0.4 | Binding of Control serum Blood-bank to linear peptides of the protein M of SARS-CoV Urbani [1]: 0.5 | Binding of Control serum LUMC to linear peptides of the protein M of SARS-CoV Urbani [1]: 0.5 | Binding of Control serum LUMC to looped peptides of the protein M of SARS-CoV Urbani [1]: 0.6 | Binding of serum 1a to linear peptides of protein M of SARS-CoV Urbani [2]: 0.7 | Binding of serum 1a to looped/cyclic peptides of protein M of SARS-CoV Urbani [2]: 0.7 | Binding of serum 1b to linear peptides of protein M of SARS-CoV Urbani [2]: 0.5 | Binding of serum 1b to looped/cyclic peptides of protein M of SARS-CoV Urbani [2]: 0.4 | Binding of serum 2 to linear peptides of protein M of SARS-CoV Urbani [2]: 0.4 | Binding of serum 2 to looped/cyclic peptides of protein M of SARS-CoV Urbani [2]: 0.4 | Binding of serum 6 to linear peptides of protein M of SARS-CoV Urbani [2]: 0.3 | Binding of serum 6 to looped/cyclic peptides of protein M of SARS-CoV Urbani [2]: 0.5 | Binding of serum 37 to linear peptides of protein M of SARS-CoV Urbani [2]: 0.4 | Binding of serum 37 to looped/cyclic peptides of protein M of SARS-CoV Urbani [2]: 0.4 | Binding of serum 62 to linear peptides of protein M of SARS-CoV Urbani [2]: 0.4 | Binding of serum 62 to looped/cyclic peptides of protein M of SARS-CoV Urbani [2]: 0.5 | Binding of serum London to linear peptides of protein M of SARS-CoV Urbani [2]: 0.3 | Binding of serum London to looped/cyclic peptides of protein M of SARS-CoV Urbani [2]: 0.2 | Binding of serum SARS-green to linear peptides of protein M of SARS-CoV Urbani [2]: 0.3 | Binding of serum SARS-green to looped/cyclic peptides of protein M of SARS-CoV Urbani [2]: 0.2 | Binding of serum SARS-yellow to linear peptides of protein M of SARS-CoV Urbani [2]: 0.2 | Binding of serum SARS-yellow to looped/cyclic peptides of protein M of SARS-CoV Urbani [2]: 0.4 | Rabbit serum linear peptides [3]: 0.2 | Rabbit serum looped peptides [3]: 0.0

MAISPKFTTSLSLHK
Binding of Control Serum Blood-Bank to Looped peptides [1]: 0.7 | Binding of Control serum Blood-bank to linear peptides [1]: 1.0 | Binding of Control serum LUMC to linear peptides [1]: 0.7 | Binding of Control serum LUMC to looped peptides [1]: 0.6 | Binding of serum 1a to linear peptides of protein X2 [2]: 0.7 | Binding of serum 1a to looped/cyclic peptides of protein X2 of SARS-CoV Urbani [2]: 0.5 | Binding of serum 1b to linear peptides of protein X2 [2]: 0.7 | Binding of serum 1b to looped/cyclic peptides of protein X2 of SARS-CoV Urbani [2]: 0.5 | Binding of serum 2 to linear peptides of protein X2 [2]: 0.7 | Binding of serum 2 to looped/cyclic peptides of protein X2 of SARS-CoV Urbani [2]: 0.4 | Binding of serum 6 to linear peptides of protein X2 [2]: 0.6 | Binding of serum 6 to looped/cyclic peptides of protein X2 of SARS-CoV Urbani [2]: 0.4 | Binding of serum 37 to linear peptides of protein X2 [2]: 0.7 | Binding of serum 37 to looped/cyclic peptides of protein X2 of SARS-CoV Urbani [2]: 0.4 | Binding of serum 62 to linear peptides of protein X2 [2]: 0.7 | Binding of serum 62 to looped/cyclic peptides of protein X2 of SARS-CoV Urbani [2]: 0.6 | Binding of serum London to linear peptides of protein X2 [2]: 0.5 | Binding of serum London to looped/cyclic peptides of protein X2 of SARS-CoV Urbani [2]: 0.2 | Binding of serum SARS-green to linear peptides of protein X2 [2]: 0.5 | Binding of serum SARS-green to looped/cyclic peptides of protein X2 of SARS-CoV Urbani [2]: 0.4 | Binding of serum SARS-yellow to linear peptides of protein X2 [2]: 0.5 | Binding of serum SARS-yellow to looped/cyclic peptides of protein X2 of SARS-CoV Urbani [2]: 0.5 | Binding of a rabbit serum to linear peptides [3]: 0.3 | Binding of a rabbit serum to looped peptides [3]: 0.6
